# Key:
# [1] = test system: Beet Armyworm (Spodoptera exigua); experiment: Bioassay on Beet Armyworm (BAW), 128-well diet tray assay; assay type: in vivo; details: Spodoptera exigua, 168 h; 50 μg/cm^2 on artificial diet, second instar larvae, five to seven days; read-out: BAW % Control (or Mortality) rating
# [2] = test system: Cabbage Looper (Trichoplusia ni); experiment: Bioassay on Cabbage Looper (CL), 128-well diet tray assay; assay type: in vivo; details: 168 h, 50 μg/cm^2 on artificial diet, second instar larvae, five to seven days, read-out: CL % Control (or Mortality) rating
# Method in brief: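 Each of eight wells receives artificial diet treated at 50 μg/cm^2 with the test molecule, then one to five second-instar larvae. Incubation runs five to seven days at 25° C with a 14:10 light-dark cycle under vented covers. Mortality is scored per well as a percentage and averaged.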
SMILES,mortality at 50 µg/cm2 [1] [%],mortality at 50 µg/cm2 [2] [%]
"O=C(NNc1cccc(Br)n1)c1ccc(/C(F)=C/C(c2cc(Cl)c(Cl)c(Cl)c2)C(F)(F)F)cc1C(F)(F)F (centres unmarked) [F165, (Z)—N′-(6-Bromopyridin-2-yl)-4-(1,4,4,4-tetrafluoro-3-(3,4,5-trichlorophenyl)but-1-en-1-yl)-2-(trifluoromethyl)benzohydrazide]",50 to 100,50 to 100
"CN(NC(=O)c1ccc(/C(F)=C/C(c2cc(Cl)c(Cl)c(Cl)c2)C(F)(F)F)cc1C(F)(F)F)c1ncc(N)cn1 (centres unmarked) [F166, (Z)—N′-(5-Aminopyrimidin-2-yl)-N′-methyl-4-(1,4,4,4-tetrafluoro-3-(3,4,5-trichlorophenyl)but-1-en-1-yl)-2-(trifluoromethyl)benzohydrazide]",50 to 100,50 to 100
"O=C(NNc1ncccn1)c1ccc(/C(F)=C/C(c2ccc(C(F)(F)F)c(Cl)c2)C(F)(F)F)cc1C(F)(F)F (centres unmarked) [F167, (Z)-4-(3-(3-Chloro-4-(trifluoromethyl)phenyl)-1,4,4,4-tetrafluorobut-1-en-1-yl)-N′-(pyrimidin-2-yl)-2-(trifluoromethyl)benzohydrazide]",50 to 100,50 to 100
"C=Cc1cc(C(/C=C(\F)c2ccc(C(=O)NNc3ncccn3)c(C(F)(F)F)c2)C(F)(F)F)cc(Cl)c1Cl (centres unmarked) [F168, (Z)-4-(3-(3,4-dichloro-5-vinylphenyl)-1,4,4,4-tetrafluorobut-1-en-1-yl)-N′-(pyrimidin-2-yl)-2-(trifluoromethyl)benzohydrazide]",50 to 100,50 to 100
"CC(C)N(NC(=O)c1ccc(/C(F)=C/C(c2cc(Cl)c(Cl)c(Cl)c2)C(F)(F)F)cc1C(F)(F)F)c1ncccn1 (centres unmarked) [F169, (Z)—N′-Isopropyl-N′-(pyrimidin-2-yl)-4-(1,4,4,4-tetrafluoro-3-(3,4,5-trichlorophenyl)but-1-en-1-yl)-2-(trifluoromethyl)benzohydrazide]",50 to 100,50 to 100
"CC(C)N(Nc1ncccn1)C(=O)c1ccc(/C(F)=C/C(c2cc(Cl)c(Cl)c(Cl)c2)C(F)(F)F)cc1C(F)(F)F (centres unmarked) [F170, (Z)—N-Isopropyl-N′-(pyrimidin-2-yl)-4-(1,4,4,4-tetrafluoro-3-(3,4,5-trichlorophenyl)but-1-en-1-yl)-2-(trifluoromethyl)benzohydrazide]",50 to 100,50 to 100
"CN(NC(=O)c1ccc(/C(F)=C/C(c2cc(Cl)c(Cl)c(Br)c2)C(F)(F)F)cc1C(F)(F)F)c1ncccn1 (centres unmarked) [F171, (Z)-4-(3-(3-Bromo-4,5-dichlorophenyl)-1,4,4,4-tetrafluorobut-1-en-1-yl)-N′-methyl-N′-(pyrimidin-2-yl)-2-(trifluoromethyl)benzohydrazide]",50 to 100,50 to 100
"O=C(NNc1ncccn1)c1ccc(/C(F)=C/C(c2cc(Cl)cc(Br)c2)C(F)(F)F)cc1C(F)(F)F (centres unmarked) [F173, (Z)-4-(3-(3-Bromo-5-chlorophenyl)-1,4,4,4-tetrafluorobut-1-en-1-yl)-N′-(pyrimidin-2-yl)-2-(trifluoromethyl)benzohydrazide]",50 to 100,50 to 100
"O=C(NNc1ncccn1)c1ccc(/C(F)=C/C(c2cc(F)c(F)c(Cl)c2)C(F)(F)F)cc1C(F)(F)F (centres unmarked) [F174, (Z)-4-(3-(3-Chloro-4,5-difluorophenyl)-1,4,4,4-tetrafluorobut-1-en-1-yl)-N′-(pyrimidin-2-yl)-2-(trifluoromethyl)benzohydrazide]",50 to 100,50 to 100
"CN(NC(=O)c1ccc(/C(F)=C/C(c2cc(F)c(F)c(Cl)c2)C(F)(F)F)cc1C(F)(F)F)c1ncccn1 (centres unmarked) [F175, (Z)-4-(3-(3-Chloro-4,5-difluorophenyl)-1,4,4,4-tetrafluorobut-1-en-1-yl)-N′-methyl-N′-(pyrimidin-2-yl)-2-(trifluoromethyl)benzohydrazide]",50 to 100,50 to 100
"O=C(NNc1ncccn1)c1ccc(/C(F)=C/C(c2ccc(Br)c(Br)c2)C(F)(F)F)cc1C(F)(F)F (centres unmarked) [F177, (Z)-4-(3-(3,4-Dibromophenyl)-1,4,4,4-tetrafluorobut-1-en-1-yl)-N′-(pyrimidin-2-yl)-2-(trifluoromethyl)benzohydrazide]",50 to 100,50 to 100
"O=C(NNc1ncccn1)c1ccc(/C(F)=C/C(c2ccc(Cl)c(Br)c2)C(F)(F)F)cc1C(F)(F)F (centres unmarked) [F178, (Z)-4-(3-(3-Bromo-4-chlorophenyl)-1,4,4,4-tetrafluorobut-1-en-1-yl)-N′-(pyrimidin-2-yl)-2-(trifluoromethyl)benzohydrazide]",50 to 100,50 to 100
"COCN(NC(=O)c1ccc(/C(F)=C/C(c2cc(Cl)c(Cl)c(Cl)c2)C(F)(F)F)cc1C(F)(F)F)c1ncccn1 (centres unmarked) [F179, (Z)—N′-(methoxymethyl)-N′-(pyrimidin-2-yl)-4-(1,4,4,4-tetrafluoro-3-(3,4,5-trichlorophenyl)but-1-en-1-yl)-2-(trifluoromethyl)benzohydrazide]",50 to 100,50 to 100
"O=C(NNc1ncccn1)c1ccc(/C(F)=C/C(c2ccc(F)c(Cl)c2)C(F)(F)F)cc1C(F)(F)F (centres unmarked) [F182, (Z)-4-(3-(3-Chloro-4-fluorophenyl)-1,4,4,4-tetrafluorobut-1-en-1-yl)-N′-(pyrimidin-2-yl)-2-(trifluoromethyl)benzohydrazide]",50 to 100,50 to 100
"O=C(NNc1ncccn1)c1ccc(/C(F)=C/C(c2cc(Br)c(Cl)c(Br)c2)C(F)(F)F)cc1C(F)(F)F (centres unmarked) [F185, (Z)-4-(3-(3,5-Dibromo-4-chlorophenyl)-1,4,4,4-tetrafluorobut-1-en-1-yl)-N′-(pyrimidin-2-yl)-2-(trifluoromethyl)benzohydrazide]",50 to 100,50 to 100
"O=C(NNc1ncccn1)c1ccc(/C(F)=C/C(c2cc(Cl)c(Cl)c(C(F)F)c2)C(F)(F)F)cc1C(F)(F)F (centres unmarked) [F186, (Z)-4-(3-(3,4-Dichloro-5-(difluoromethyl)phenyl)-1,4,4,4-tetrafluorobut-1-en-1-yl)-N′-(pyrimidin-2-yl)-2-(trifluoromethyl)benzohydrazide]",50 to 100,50 to 100
"N#CCN(C(=O)c1ccc(/C(F)=C/C(c2cc(Cl)c(Cl)c(Cl)c2)C(F)(F)F)cc1C(F)(F)F)N(CC#N)c1ncccn1 (centres unmarked) [F187, (Z)—N,N′-bis(cyanomethyl)-N′-(pyrimidin-2-yl)-4-(1,4,4,4-tetrafluoro-3-(3,4,5-trichlorophenyl)but-1-en-1-yl)-2-(trifluoromethyl)benzohydrazide]",50 to 100,50 to 100
"O=C(NNc1ncccn1)c1ccc(/C(F)=C/C(c2cc(F)c(Cl)c(F)c2)C(F)(F)F)cc1C(F)(F)F (centres unmarked) [F188, (Z)-4-(3-(4-Chloro-3,5-difluorophenyl)-1,4,4,4-tetrafluorobut-1-en-1-yl)-N′-(pyrimidin-2-yl)-2-(trifluoromethyl)benzohydrazide]",50 to 100,50 to 100
"N#CCN(NC(=O)c1ccc(/C(F)=C/C(c2cc(Cl)c(Cl)c(Cl)c2)C(F)(F)F)cc1C(F)(F)F)c1ncccn1 (centres unmarked) [F189, (Z)—N′-(cyanomethyl)-N′-(pyrimidin-2-yl)-4-(1,4,4,4-tetrafluoro-3-(3,4,5-trichlorophenyl)but-1-en-1-yl)-2-(trifluoromethyl)benzohydrazide]",50 to 100,50 to 100
